Results from patent publication US8415272B2, “Quinoline derivatives and their use as fungicides” (Syngenta Crop Protection LLC, priority 2008, dated 2013).

Key:
Phytophthora infestans = assay: whole plant or invertebrate; assay type: in vivo; details: in Solanum lycopersicum, foliar, 96 h, read-out: control of fungal infection, Phytophthora infestans
Septoria tritici = assay: Growth inhibition in nutrient broth, Septoria tritici (leaf blotch), photometric; assay type: cell-based; details: Zymoseptoria tritici, PDB broth, 24 C, 72 hrs, read-out: control of fungal infection, Septoria tritici
Plasmopara viticola = assay: Leaf disk assay, Plasmopara viticola (downy mildew of grapevine), preventive; assay type: in vivo; details: foliar, 168 h, grapevine leaf disks, assessed seven days after inoculation, read-out: control of fungal infection, Plasmopara viticola
Fusarium culmorum = assay: Growth inhibition in nutrient broth, Fusarium culmorum (root rot), photometric; assay type: cell-based; details: 48 h, read-out: control of fungal infection, Fusarium culmorum
Procedure, shortened: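 Fusarium culmorum conidia in potato dextrose broth were added to compounds in DMSO. Plates were incubated at 24 C for 48 hrs, with growth inhibition read photometrically. […]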

[1] = tested on: Erysiphe graminis f.sp. tritici; assay: Leaf disk assay, Erysiphe graminis f.sp. tritici (wheat powdery mildew), preventive; assay type: in vivo; details: Blumeria graminis, foliar, 96 h, wheat leaf segments, assessed four days after inoculation, read-out: control of fungal infection, Erysiphe graminis f.sp. tritici
Procedure, shortened: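 Preventive protocol: compound at 200 ppm in water (from DMSO) sprayed onto wheat leaf segments on agar, dried 12–24 h, then spore-inoculated. Fungicidal activity was assessed four days post-inoculation.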

Pythium ultimum = assay: Growth inhibition in potato dextrose broth, Pythium ultimum (damping off), photometric; assay type: cell-based; details: Globisporangium ultimum, 24° C., 48 hours, read-out: control of fungal infection, Pythium ultimum
Procedure, shortened: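 Growth inhibition was read photometrically at 48 hours after incubation at 24° C. Test compound was diluted from DMSO to 20 ppm in water and combined with potato dextrose broth seeded with Pythium ultimum mycelial fragments.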

Septoria nodorum = assay: Leaf disk assay, Septoria nodorum (wheat glume blotch), preventive; assay type: in vivo; details: Parastagonospora nodorum, foliar, 96 h, wheat leaf segments, assessed four days after inoculation, read-out: control of fungal infection, Septoria nodorum
Pyrenophora teres = assay: Leaf disk assay, Pyrenophora teres (barley net blotch), preventive; assay type: in vivo; details: foliar, 96 h, barley leaf segments, assessed four days after inoculation, read-out: control of fungal infection, Pyrenophora teres
Experimental: The compounds were tested in a leaf disk assay, with methods described below. The test compounds were dissolved in DMSO and diluted into water to 200 ppm. In the case of the test on Pythium ultimum, they were dissolved in DMSO and diluted into water to 20 ppm. Pyrenophora teres (barley net blotch): Barley leaf segments were placed on agar in a 24-well plate and sprayed with a solution of the test compound. After allowing to dry completely, for between 12 and 24 hours, the leaf disks were inoculated with a spore suspension of the fungus. After appropriate incubation the activity of a compound was assessed four days after inoculation as preventive fungicidal activity.

[2] = tested on: Puccinia recondita f.sp. tritici; assay: Leaf disk assay, Puccinia recondita f.sp. tritici (wheat brown rust), preventive; assay type: in vivo; details: foliar, 216 h, wheat leaf segments, assessed nine days after inoculation, read-out: control of fungal infection, Puccinia recondita f.sp. tritici

C#Cc1cnc2c(Cl)cc(OC(SC)C(=O)NC(C)(C)C)cc2c1 (centres unmarked) [Example 18]
≥ 60%: pest or weed control at 200 ppm (Phytophthora infestans) | inhibition of growth at 60 ppm (Septoria tritici) | pest or weed control at 200 ppm (Plasmopara viticola) | inhibition of growth at 60 ppm (Fusarium culmorum) | pest or weed control at 200 ppm [1] | inhibition of growth at 20 ppm (Pythium ultimum) | pest or weed control at 200 ppm (Septoria nodorum) | pest or weed control at 200 ppm (Pyrenophora teres) | pest or weed control at 200 ppm [2]

C#Cc1cnc2ccc(OC(SC)C(=O)NC(C)(C)C#C)cc2c1 (centres unmarked) [Example 21]
≥ 60%: pest or weed control at 200 ppm (Phytophthora infestans) | inhibition of growth at 60 ppm (Septoria tritici) | pest or weed control at 200 ppm (Plasmopara viticola) | inhibition of growth at 60 ppm (Fusarium culmorum) | pest or weed control at 200 ppm [1] | inhibition of growth at 20 ppm (Pythium ultimum) | pest or weed control at 200 ppm (Septoria nodorum) | pest or weed control at 200 ppm (Pyrenophora teres) | pest or weed control at 200 ppm [2]

C#Cc1cnc2ccc(OC(SC)C(=O)NC(C)(C)C#CC)cc2c1 (centres unmarked) [Example 22]
≥ 60%: pest or weed control at 200 ppm (Phytophthora infestans) | inhibition of growth at 60 ppm (Septoria tritici) | pest or weed control at 200 ppm (Plasmopara viticola) | inhibition of growth at 60 ppm (Fusarium culmorum) | pest or weed control at 200 ppm [1] | inhibition of growth at 20 ppm (Pythium ultimum) | pest or weed control at 200 ppm (Septoria nodorum) | pest or weed control at 200 ppm (Pyrenophora teres) | pest or weed control at 200 ppm [2]

C#Cc1cnc2ccc(OC(SC)C(=O)NC(C)(C)C#CCOC)cc2c1 (centres unmarked) [Example 23]
≥ 60%: pest or weed control at 200 ppm (Phytophthora infestans) | inhibition of growth at 60 ppm (Septoria tritici) | pest or weed control at 200 ppm (Plasmopara viticola) | inhibition of growth at 60 ppm (Fusarium culmorum) | pest or weed control at 200 ppm [1] | inhibition of growth at 20 ppm (Pythium ultimum) | pest or weed control at 200 ppm (Septoria nodorum) | pest or weed control at 200 ppm (Pyrenophora teres) | pest or weed control at 200 ppm [2]

C#CCOCC#CC(C)(C)NC(=O)C(Oc1ccc2ncc(C#C)cc2c1)SC (centres unmarked) [Example 24]
≥ 60%: pest or weed control at 200 ppm (Phytophthora infestans) | inhibition of growth at 60 ppm (Septoria tritici) | pest or weed control at 200 ppm (Plasmopara viticola) | inhibition of growth at 60 ppm (Fusarium culmorum) | pest or weed control at 200 ppm [1] | inhibition of growth at 20 ppm (Pythium ultimum) | pest or weed control at 200 ppm (Septoria nodorum) | pest or weed control at 200 ppm (Pyrenophora teres) | pest or weed control at 200 ppm [2]

C#Cc1cnc2ccc(OC(SC)C(=O)NC(C)(C)COC)cc2c1 (centres unmarked) [Example 29]
≥ 60%: pest or weed control at 200 ppm (Phytophthora infestans) | inhibition of growth at 60 ppm (Septoria tritici) | pest or weed control at 200 ppm (Plasmopara viticola) | inhibition of growth at 60 ppm (Fusarium culmorum) | pest or weed control at 200 ppm [1] | inhibition of growth at 20 ppm (Pythium ultimum) | pest or weed control at 200 ppm (Septoria nodorum) | pest or weed control at 200 ppm (Pyrenophora teres) | pest or weed control at 200 ppm [2]

C#Cc1cnc2ccc(OC(SC)C(=O)NC(C)(C)C#N)cc2c1 (centres unmarked) [Example 82]
≥ 60%: pest or weed control at 200 ppm (Phytophthora infestans) | inhibition of growth at 60 ppm (Septoria tritici) | pest or weed control at 200 ppm (Plasmopara viticola) | pest or weed control at 200 ppm [1] | inhibition of growth at 20 ppm (Pythium ultimum) | pest or weed control at 200 ppm (Septoria nodorum) | pest or weed control at 200 ppm (Pyrenophora teres) | pest or weed control at 200 ppm [2]

C#Cc1cnc2c(C)cc(OC(SC)C(=O)NC(C)(C)CF)cc2c1 (centres unmarked) [Example 93]
≥ 60%: pest or weed control at 200 ppm (Phytophthora infestans) | inhibition of growth at 60 ppm (Septoria tritici) | pest or weed control at 200 ppm (Plasmopara viticola) | inhibition of growth at 60 ppm (Fusarium culmorum) | pest or weed control at 200 ppm [1] | inhibition of growth at 20 ppm (Pythium ultimum) | pest or weed control at 200 ppm (Septoria nodorum) | pest or weed control at 200 ppm (Pyrenophora teres) | pest or weed control at 200 ppm [2]

C#Cc1cnc2ccc(OC(SC)C(=O)NC(C)(C)CC)cc2c1 (centres unmarked) [Example 94]
≥ 60%: pest or weed control at 200 ppm (Phytophthora infestans) | inhibition of growth at 60 ppm (Septoria tritici) | pest or weed control at 200 ppm (Plasmopara viticola) | inhibition of growth at 60 ppm (Fusarium culmorum) | pest or weed control at 200 ppm [1] | inhibition of growth at 20 ppm (Pythium ultimum) | pest or weed control at 200 ppm (Septoria nodorum) | pest or weed control at 200 ppm (Pyrenophora teres) | pest or weed control at 200 ppm [2]

C#Cc1cnc2c(C)cc(OC(SC)C(=O)NC(C)(C)COCC)cc2c1 (centres unmarked) [Example 95]
≥ 60%: pest or weed control at 200 ppm (Phytophthora infestans) | inhibition of growth at 60 ppm (Septoria tritici) | pest or weed control at 200 ppm (Plasmopara viticola) | pest or weed control at 200 ppm [1] | inhibition of growth at 20 ppm (Pythium ultimum) | pest or weed control at 200 ppm (Septoria nodorum) | pest or weed control at 200 ppm (Pyrenophora teres) | pest or weed control at 200 ppm [2]

C#Cc1cnc2ccc(OC(SC)C(=O)NC(C)(C)CF)cc2c1 (centres unmarked) [Example 99]
≥ 60%: pest or weed control at 200 ppm (Phytophthora infestans) | inhibition of growth at 60 ppm (Septoria tritici) | pest or weed control at 200 ppm (Plasmopara viticola) | inhibition of growth at 60 ppm (Fusarium culmorum) | pest or weed control at 200 ppm [1] | pest or weed control at 200 ppm (Septoria nodorum) | pest or weed control at 200 ppm (Pyrenophora teres) | pest or weed control at 200 ppm [2]

C#Cc1cnc2cc(F)c(OC(SC)C(=O)NC(C)(C)COC)cc2c1 (centres unmarked) [Example 108]
≥ 60%: pest or weed control at 200 ppm (Phytophthora infestans) | inhibition of growth at 60 ppm (Septoria tritici) | pest or weed control at 200 ppm (Plasmopara viticola) | inhibition of growth at 60 ppm (Fusarium culmorum) | pest or weed control at 200 ppm [1] | pest or weed control at 200 ppm (Septoria nodorum) | pest or weed control at 200 ppm (Pyrenophora teres) | pest or weed control at 200 ppm [2]

C#CCOCC(C)(C)NC(=O)C(Oc1cc2cc(C#C)cnc2cc1F)SC (centres unmarked) [Example 109]
≥ 60%: pest or weed control at 200 ppm (Phytophthora infestans) | inhibition of growth at 60 ppm (Septoria tritici) | pest or weed control at 200 ppm (Plasmopara viticola) | inhibition of growth at 60 ppm (Fusarium culmorum) | pest or weed control at 200 ppm [1] | pest or weed control at 200 ppm (Septoria nodorum) | pest or weed control at 200 ppm (Pyrenophora teres) | pest or weed control at 200 ppm [2]

C#Cc1cnc2c(C)cc(OC(CC)C(=O)NC(C)(C)C#C)cc2c1 (centres unmarked) [Example 114]
≥ 60%: pest or weed control at 200 ppm (Phytophthora infestans) | inhibition of growth at 60 ppm (Septoria tritici) | pest or weed control at 200 ppm (Plasmopara viticola) | inhibition of growth at 60 ppm (Fusarium culmorum) | pest or weed control at 200 ppm [1] | pest or weed control at 200 ppm (Septoria nodorum) | pest or weed control at 200 ppm (Pyrenophora teres) | pest or weed control at 200 ppm [2]

C#Cc1cnc2c(C)cc(OC(CC)C(=O)NC(C)(C)C)cc2c1 (centres unmarked) [Example 115]
≥ 60%: pest or weed control at 200 ppm (Phytophthora infestans) | inhibition of growth at 60 ppm (Septoria tritici) | pest or weed control at 200 ppm (Plasmopara viticola) | inhibition of growth at 60 ppm (Fusarium culmorum) | pest or weed control at 200 ppm [1] | pest or weed control at 200 ppm (Septoria nodorum) | pest or weed control at 200 ppm (Pyrenophora teres) | pest or weed control at 200 ppm [2]

C#Cc1cnc2c(Cl)cc(OC(SC)C(=O)NC(C)(C)C#CCC)cc2c1 (centres unmarked) [Example 122]
≥ 60%: pest or weed control at 200 ppm (Phytophthora infestans) | inhibition of growth at 60 ppm (Septoria tritici) | pest or weed control at 200 ppm (Plasmopara viticola) | pest or weed control at 200 ppm [1] | inhibition of growth at 20 ppm (Pythium ultimum) | pest or weed control at 200 ppm (Septoria nodorum) | pest or weed control at 200 ppm (Pyrenophora teres) | pest or weed control at 200 ppm [2]

C#Cc1cnc2ccc(OC(SC)C(=O)NC(C)(C#C)COC)cc2c1 (centres unmarked) [Example 129]
≥ 60%: pest or weed control at 200 ppm (Phytophthora infestans) | inhibition of growth at 60 ppm (Septoria tritici) | pest or weed control at 200 ppm (Plasmopara viticola) | pest or weed control at 200 ppm [1] | inhibition of growth at 20 ppm (Pythium ultimum) | pest or weed control at 200 ppm (Septoria nodorum) | pest or weed control at 200 ppm (Pyrenophora teres) | pest or weed control at 200 ppm [2]

C#Cc1cnc2c(C)cc(OC(SC)C(=O)NC(C)(C#C)COC)cc2c1 (centres unmarked) [Example 135]
≥ 60%: pest or weed control at 200 ppm (Phytophthora infestans) | inhibition of growth at 60 ppm (Septoria tritici) | pest or weed control at 200 ppm (Plasmopara viticola) | pest or weed control at 200 ppm [1] | inhibition of growth at 20 ppm (Pythium ultimum) | pest or weed control at 200 ppm (Septoria nodorum) | pest or weed control at 200 ppm (Pyrenophora teres) | pest or weed control at 200 ppm [2]

CSC(Oc1ccc2ncc(C#CCF)cc2c1)C(=O)NC(C)(C)C (centres unmarked) [Example 144]
≥ 60%: pest or weed control at 200 ppm (Phytophthora infestans) | inhibition of growth at 60 ppm (Septoria tritici) | pest or weed control at 200 ppm (Plasmopara viticola) | inhibition of growth at 60 ppm (Fusarium culmorum) | pest or weed control at 200 ppm [1] | inhibition of growth at 20 ppm (Pythium ultimum) | pest or weed control at 200 ppm (Septoria nodorum) | pest or weed control at 200 ppm (Pyrenophora teres)

C#Cc1cnc2ccc(OC(SC)C(=O)NC3(C)CCC3)cc2c1 (centres unmarked) [Example 202]
≥ 60%: pest or weed control at 200 ppm (Phytophthora infestans) | inhibition of growth at 60 ppm (Septoria tritici) | pest or weed control at 200 ppm (Plasmopara viticola) | pest or weed control at 200 ppm [1] | inhibition of growth at 20 ppm (Pythium ultimum) | pest or weed control at 200 ppm (Septoria nodorum) | pest or weed control at 200 ppm (Pyrenophora teres) | pest or weed control at 200 ppm [2]

C#Cc1cnc2c(Cl)cc(OC(SC)C(=O)NC3(C)CCC3)cc2c1 (centres unmarked) [Example 203]
≥ 60%: pest or weed control at 200 ppm (Phytophthora infestans) | inhibition of growth at 60 ppm (Septoria tritici) | pest or weed control at 200 ppm (Plasmopara viticola) | pest or weed control at 200 ppm [1] | inhibition of growth at 20 ppm (Pythium ultimum) | pest or weed control at 200 ppm (Septoria nodorum) | pest or weed control at 200 ppm (Pyrenophora teres) | pest or weed control at 200 ppm [2]
